Where “and” joins values, the source holds several entries; their conditions need not be identical. Identical values can stand only once.
Experiments:
Btk [1] = target: T1, Btk (Homo sapiens (Human), UniProt Q06187); assay: Btk PBMC IC50 Cell Assay (anti-IgM-induced CD69 expression on B cells); type: cell-based; conditions: anti-IgM-induced CD69 expression on CD19 positive cells in human PBMCs;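 note: freshly isolated human PBMCs, IC50 from concentration-response of the share of CD19+ cells expressing CD69 after anti-IgM BCR stimulation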
Btk [2] = target: T1, Btk; assay: Time Dependent Human Whole Blood IC50 Assay; type: cell-based; conditions: read-out: Assay C (IC50)
full-length human BTK = full-length human BTK (Homo sapiens (Human), UniProt Q06187); assay: BTK IC50 Enzyme Assay (microfluidic off-chip mobility shift kinase assay); type: biochemical; conditions: Btk Enzymatic IC50 Assay, 90 min at 27 C;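 note: Read-out separates phosphorylated peptide product from substrate by their charge-to-mass difference, with IC50 fitted from log inhibitor concentration against percent enzyme activity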
full-length human BTK, sequence (Q06187 whole entry): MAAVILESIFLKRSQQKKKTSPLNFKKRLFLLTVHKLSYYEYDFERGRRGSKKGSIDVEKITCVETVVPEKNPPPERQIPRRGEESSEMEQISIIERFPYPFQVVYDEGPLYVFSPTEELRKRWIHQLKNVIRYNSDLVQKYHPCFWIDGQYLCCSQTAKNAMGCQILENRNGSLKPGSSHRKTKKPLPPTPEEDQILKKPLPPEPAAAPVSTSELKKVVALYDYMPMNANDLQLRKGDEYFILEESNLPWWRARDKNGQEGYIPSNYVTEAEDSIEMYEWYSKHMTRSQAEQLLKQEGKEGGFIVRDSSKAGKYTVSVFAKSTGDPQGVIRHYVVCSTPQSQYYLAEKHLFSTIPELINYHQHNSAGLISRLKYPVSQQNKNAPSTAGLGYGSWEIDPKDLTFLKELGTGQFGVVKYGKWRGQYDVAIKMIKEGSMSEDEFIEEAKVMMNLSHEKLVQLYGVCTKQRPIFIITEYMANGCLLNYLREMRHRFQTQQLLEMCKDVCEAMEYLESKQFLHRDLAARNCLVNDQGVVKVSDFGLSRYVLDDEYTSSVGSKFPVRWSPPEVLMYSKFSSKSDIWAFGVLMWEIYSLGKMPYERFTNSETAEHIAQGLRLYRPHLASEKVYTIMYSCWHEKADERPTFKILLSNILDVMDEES

T1 sequence (Q06187 whole entry): as above

Row | Compound | IC50 (Btk [1]) [nM] | IC50 (Btk [2]) | IC50 (full-length human BTK) [nM]
1 | Cc1nn(C)c(C)c1-c1nc2c(-c3ccc4c(c3)CCCC[C@H]4NC(=O)c3noc(C4(C)CC4)n3)ccnc2[nH]1 [Compound 12, 5-(1-Methyl-cyclopropyl)-[1,2,4]oxadiazole-3-carboxylic acid {(R)-2-[2-(1,3,5-trimethyl-1H-pyrazol-4-yl)-3H-imidazo[4,5-b]pyridin-7-yl]-6,7,8,9-tetrahydro-5H-benzocyclohepten-5-yl}-amide] | 1 to 10 | 1 to 10 nM | < 1
2 | Cn1cc(-c2nc3c(-c4ccc5c(c4)CCCC[C@H]5NC(=O)c4cc(C5(C)CC5)on4)ccnc3[nH]2)cn1 [Compound 56, 5-(1-Methyl-cyclopropyl)-isoxazole-3-carboxylic acid {(R)-2-[2-(1-methyl-1H-pyrazol-4-yl)-3H-imidazo[4,5-b]pyridin-7-yl]-6,7,8,9-tetrahydro-5H-benzocyclohepten-5-yl}-amide] | 1 to 10 | 1 to 10 nM | < 1
3 | Cc1nn(C(C)C)cc1-c1nc2nccc(-c3ccc4c(c3)CCCC[C@@H]4NC(=O)c3nnc(C(C)(C)C)o3)c2[nH]1 [Compound 77, 5-tert-butyl-N-[(5S)-2-{2-[3-methyl-1-(propan-2-yl)-1H-pyrazol-4-yl]-1H-imidazo[4,5-b]pyridin-7-yl}-6,7,8,9-tetrahydro-5H-benzo[7]annulen-5-yl]-1,3,4-oxadiazole-2-carboxamide] | 10 to 100 | – | 1 to 10
4 | Cc1nn(C(C)C)c(C)c1-c1nc2c(-c3ccc4c(c3)CCCCC4NC(=O)c3nc(C4(C)CC4)no3)ccnc2[nH]1 (stereo not drawn) [Compound 35, 3-(1-Methyl-cyclopropyl)-[1,2,4]oxadiazole-5-carboxylic acid {2-[2-(1-isopropyl-3,5-dimethyl-1H-pyrazol-4-yl)-3H-imidazo[4,5-b]pyridin-7-yl]-6,7,8,9-tetrahydro-5H-benzocyclohepten-5-yl}-amide] | 1 to 10 | – | < 1
5 | Cn1cc(-c2nc3c(-c4ccc5c(c4)CCCC[C@@H]5NC(=O)c4noc(C(C)(C)C)n4)ccnc3[nH]2)cn1 [Compound 53, 5-tert-Butyl-[1,2,4]oxadiazole-3-carboxylic acid {(S)-2-[2-(1-methyl-1H-pyrazol-4-yl)-3H-imidazo[4,5-b]pyridin-7-yl]-6,7,8,9-tetrahydro-5H-benzocyclohepten-5-yl}-amid] | 10 to 100 | – | 1 to 10
6 | Cc1nn(C)c(C)c1-c1nc2c(-c3ccc4c(c3)OCCC[C@@H]4NC(=O)c3nnc(C(C)(C)C)o3)ccnc2[nH]1 [Compound 19, 5-tert-Butyl-[1,3,4]oxadiazole-2-carboxylic acid {(S)-8-[2-(1,3,5-trimethyl-1H-pyrazol-4-yl)-3H-imidazo[4,5-b]pyridin-7-yl]-2,3,4,5-tetrahydro-benzo[b]oxepin-5-yl}-amide] | 1 to 10 | – | < 1
7 | Cn1cc(-c2nc3c(-c4ccc5c(c4)CCCC[C@H]5NC(=O)c4nnc(C(C)(C)C)o4)ccnc3[nH]2)cn1 [Compound 48, 5-tert-Butyl-[1,3,4]oxadiazole-2-carboxylic acid {(R)-2-[2-(1-methyl-1H-pyrazol-4-yl)-3H-imidazo[4,5-b]pyridin-7-yl]-6,7,8,9-tetrahydro-5H-benzocyclohepten-5-yl}-amide] | > 100 | – | 1 to 10
8 | Cc1nn(C(C)C)cc1-c1nc2c(-c3ccc4c(c3)CCCC[C@@H]4NC(=O)c3nc(C4(C)CC4)no3)ccnc2[nH]1 [Compound 60, 3-(1-Methyl-cyclopropyl)-[1,2,4]oxadiazole-5-carboxylic acid {(S)-2-[2-(1-isopropyl-3-methyl-1H-pyrazol-4-yl)-3H-imidazo[4,5-b]pyridin-7-yl]-6,7,8,9-tetrahydro-5H-benzocyclohepten-5-yl}-amide] | 10 to 100 | – | 1 to 10
9 | Cc1nn(C(C)C)c(C)c1-c1nc2c(-c3ccc4c(c3)CCCC[C@@H]4NC(=O)c3noc(C(C)(C)C)n3)ccnc2[nH]1 [Compound 31, 5-tert-Butyl-[1,2,4]oxadiazole-3-carboxylic acid {(S)-2-[2-(1-isopropyl-3,5-dimethyl-1H-pyrazol-4-yl)-3H-imidazo[4,5-b]pyridin-7-yl]-6,7,8,9-tetrahydro-5H-benzocyclohepten-5-yl}-amide] | 10 to 100 | – | 1 to 10
10 | Cn1cc(-c2nc3c(-c4ccc5c(c4)CCCCC5NC(=O)c4noc(C(C)(C)C)n4)ccnc3[nH]2)cn1 (stereo not drawn) [Compound 39, 5-tert-Butyl-[1,2,4]oxadiazole-3-carboxylic acid {2-[2-(1-methyl-1H-pyrazol-4-yl)-3H-imidazo[4,5-b]pyridin-7-yl]-6,7,8,9-tetrahydro-5H-benzocyclohepten-5-yl}-amide] | < 1 | – | < 1
11 | Cc1c(-c2nc3c(-c4ccc5c(c4)CCCC[C@H]5NC(=O)c4nc(C5(C)CC5)no4)ccnc3[nH]2)cnn1C(C)C [Compound 27, 3-(1-Methyl-cyclopropyl)-[1,2,4]oxadiazole-5-carboxylic acid {(R)-2-[2-(1-isopropyl-5-methyl-1H-pyrazol-4-yl)-3H-imidazo[4,5-b]pyridin-7-yl]-6,7,8,9-tetrahydro-5H-benzocyclohepten-5-yl}-amide] | 1 to 10 | – | < 1
12 | Cn1cc(-c2nc3c(-c4ccc5c(c4)OCCC[C@H]5NC(=O)c4nc(C(C)(C)C)no4)ccnc3[nH]2)cn1 [Compound 44, 3-tert-Butyl-[1,2,4]oxadiazole-5-carboxylic acid {(R)-8-[2-(1-methyl-1H-pyrazol-4-yl)-3H-imidazo[4,5-b]pyridin-7-yl]-2,3,4,5-tetrahydro-benzo[b]oxepin-5-yl}-amide] | 10 to 100 | – | 1 to 10

Now from value to compound:

Row | IC50 (Btk [1]) [nM] | IC50 (Btk [2]) | IC50 (full-length human BTK) [nM] | Compound
13 | 1 to 10 | 1 to 10 nM | < 1 | CCc1cc(-c2nc3nccc(-c4ccc5c(c4)CCCC[C@@H]5NC(=O)c4nnc(C(C)(C)C)o4)c3[nH]2)nn1C [Compound 89, 5-tert-butyl-N-[(5S)-2-[2-(5-ethyl-1-methyl-1H-pyrazol-3-yl)-1H-imidazo[4,5-b]pyridin-7-yl]-6,7,8,9-tetrahydro-5H-benzo[7]annulen-5-yl]-1,3,4-oxadiazole-2-carboxamide]
14 | 1 to 10 | 10 to 100 nM | < 1 | Cc1c(-c2nc3c(-c4ccc5c(c4)CCC[C@@H]5NC(=O)c4noc(C(C)(C)C)n4)ccnc3[nH]2)cnn1C(C)C [Compound 165, 5-tert-Butyl-[1,2,4]oxadiazole-3-carboxylic acid {(S)-6-[2-(1-isopropyl-5-methyl-1H-pyrazol-4-yl)-3H-imidazo[4,5-b]pyridin-7-yl]-1,2,3,4-tetrahydro-naphthalen-1-yl}-amide]
15 | 10 to 100 | 10 to 100 nM | < 1 | CCc1cc(-c2nc3c(-c4ccc5c(c4)CCCC5NC(=O)c4nc(C(C)(C)C)no4)ccnc3[nH]2)nn1C (stereo not drawn) [Compound 108, 3-tert-Butyl-[1,2,4]oxadiazole-5-carboxylic acid {6-[2-(5-ethyl-1-methyl-1H-pyrazol-3-yl)-3H-imidazo[4,5-b]pyridin-7-yl]-1,2,3,4-tetrahydro-naphthalen-1-yl}-amide]
16 | 1 to 10 | 1 to 10 nM | < 1 | Cc1c(-c2nc3c(-c4ccc5c(c4)CCCC[C@H]5NC(=O)c4nc(C(C)(C)C)no4)ccnc3[nH]2)cnn1C(C)C [Compound 160, 3-tert-Butyl-[1,2,4]oxadiazole-5-carboxylic acid {(R)-2-[2-(1-isopropyl-5-methyl-1H-pyrazol-4-yl)-3H-imidazo[4,5-b]pyridin-7-yl]-6,7,8,9-tetrahydro-5H-benzocyclohepten-5-yl}-amide]
17 | 1 to 10 | 10 to 100 nM | < 1 | CC(C)n1cc(-c2nc3c(-c4ccc5c(c4)CCCC[C@H]5NC(=O)c4cc(C(C)(C)C)on4)ccnc3[nH]2)cn1 [Compound 92]
18 | 1 to 10 | 10 to 100 nM and 1 to 10 nM | < 1 | Cc1c(-c2nc3nccc(-c4ccc5c(c4)CCCC[C@H]5NC(=O)c4nnc(C(C)(C)C)o4)c3[nH]2)cnn1C1CCOCC1 [Compound 79, 5-tert-butyl-N-[(5R)-2-{2-[5-methyl-1-(oxan-4-yl)-1H-pyrazol-4-yl]-1H-imidazo[4,5-b]pyridin-7-yl}-6,7,8,9-tetrahydro-5H-benzo[7]annulen-5-yl]-1,3,4-oxadiazole-2-carboxamide]
19 | 1 to 10 | 10 to 100 nM | < 1 | Cc1c(-c2nc3c(-c4ccc5c(c4)CCC[C@@H]5NC(=O)c4nc(C5(C)CC5)no4)ccnc3[nH]2)cnn1C1CCOCC1 [Compound 155, 3-(1-Methyl-cyclopropyl)-[1,2,4]oxadiazole-5-carboxylic acid ((S)-6-{2-[5-methyl-1-(tetrahydro-pyran-4-yl)-1H-pyrazol-4-yl]-3H-imidazo[4,5-b]pyridin-7-yl}-4-yl]-3H-imidazo[4,5-1,2,3,4-tetrahydro-naphthalen-1-yl)-amide]
20 | 10 to 100 | 10 to 100 nM | < 1 | Cc1c(-c2nc3c(-c4ccc5c(c4)CCCC5NC(=O)c4nc(C5(C)CC5)no4)ccnc3[nH]2)cnn1C1CCOCC1 (stereo not drawn) [Compound 148, 3-(1-Methyl-cyclopropyl)-[1,2,4]oxadiazole-5-carboxylic acid (6-{2-[5-methyl-1-(tetrahydro-pyran-4-yl)-1H-pyrazol-4-yl]-3H-imidazo[4,5-b]pyridin-7-yl}-1,2,3,4-tetrahydro-naphthalen-1-yl)-amide]
21 | 10 to 100 | – | 1 to 10 | Cc1cc(-c2nc3c(-c4ccc5c(c4)CCCC5NC(=O)c4nc(C(C)(C)C)no4)ccnc3[nH]2)nn1C(C)C (stereo not drawn) [Compound 112, 3-tert-Butyl-[1,2,4]oxadiazole-5-carboxylic acid {6-[2-(1-isopropyl-5-methyl-1H-pyrazol-3-yl)-3H-imidazo[4,5-b]pyridin-7-yl]-1,2,3,4-tetrahydro-naphthalen-1-yl}-amide]
22 | 1 to 10 | – | < 1 | Cc1cc(-c2nc3c(-c4ccc5c(c4)CCCCC5NC(=O)c4nc(C(C)(C)C)no4)ccnc3[nH]2)nn1C (stereo not drawn) [Compound 110, 3-tert-Butyl-[1,2,4]oxadiazole-5-carboxylic acid {2-[2-(1,5-dimethyl-1H-pyrazol-3-yl)-3H-imidazo[4,5-b]pyridin-7-yl]-6,7,8,9-tetrahydro-5H-benzocyclohepten-5-yl}-amide]

From US12415803B2, “Fused imidazopyridines as reversible inhibitors of Brutons Tyrosine Kinase (BTK)” (Merck Patent GmbH, priority 2018, dated 2025)
